Test results: US5256788A, “Moranoline derivatives and their production and the use of moranoline and its derivatives as a stabilizing agent for enzymes” (Nippon Shinyaku Co. Ltd., priority 1989, dated 1993)

Assays:
glucoamylase = target: T1, glucoamylase (Rhizopus arrhizus, UniProt P07683); assay: Stabilization of GA (aqueous solution) by moranoline, N-methylmoranoline; assay type: biochemical, Rhizopus niveus
T1 construct: maltose substrate
Method: As the enzyme, Rhizopus niveus-derived reagent glucoamylase manufactured by Seikagaku Kogyo Co., Ltd. was used.
After 5 mg of the enzyme was dissolved in 1 ml of 0.1M acetate buffer solution (pH 5.0), moranoline and N-methylmoranoline were dissolved in the solution in a concentration of 6000 μg/ml. The solution was charged in a test tube with a screw stopper followed by incubation at 50° C. Each enzyme solution was diluted with 0.1M acetate buffer solution (pH 5.0) to 100-fold and 100 μl of the dilution was taken. After 400 μl of 5% maltose solution (0.05M acetate buffer solution, pH 4.6) was added thereto, the mixture was reacted at 40° C. for 20 minutes. […] Thereafter, the system was ice cooled and absorbency was measured at 500 nm to determine the glucose amount. […] When the initial enzyme activity (amount of glucose produced) was made […], relative enzyme activity was determined. […]
After 5 mg of the enzyme was dissolved in 1 ml of 0.1M acetate buffer solution (pH 5.0), moranoline and N-methylmoranoline were dissolved in the solution in a concentration of 6000 μg/ml. […] Thereafter, the system was ice cooled and absorbancy was measured at 500 nm to determine the glucose amount. […] When the initial enzyme activity (amount of glucose produced) was made 100, relative enzyme activity was determined. […]

β-glucosidase = assay: Stabilization of β-glucosidase by moranoline and N-methylmoranoline; assay type: biochemical; conditions: 6 mg/ml of the hydrochloride, kept at 60° C.
Method: Test samples were (1) 1 ml of 0.2M buffer solution of β-glucosidase (300 μg/ml) alone, (2) 1 ml of 0.2M buffer solution of β-glucosidase (300 μg/ml) supplemented with 6 mg/ml of moranoline hydrochloride and, (3) 1 ml of 0.2M buffer solution of β-glucosidase (300 μg/ml) supplemented with 6 mg/ml of N-methylmoranoline hydrochloride. These test samples were kept at 60° C. and the residual enzyme activity was measured with passage of time.
For determination of the enzyme activity, there was used a method measuring absorbancy at 400 nm using […] as a substrate.
That is, 200 μl of 0.014M p-nitrophenyl-β-D-glucoside, 200 μl of the enzyme solution taken from each sample for sampling with passage of time which was appropriately diluted, and 600 μl of 0.2M acetate buffer solution (pH 4.5) were reacted at 30° C. for 15 minutes. After 2 ml of 0.1M disodium carbonate was added thereto to terminate the reaction, a color was formed and the color was measured at 400 nm. When absorbancy at the initiation of the reaction was made 100, relative absorbancy in each time was defined to be residual activity.

β-amylase = β-amylase (Glycine max, UniProt P10538); assay: Stabilization of β-amylase by moranoline; assay type: biochemical, soybean; conditions: 6000 μg/ml, incubated at 65° C., pH 4.8
Sequence of β-amylase (P10538 whole entry): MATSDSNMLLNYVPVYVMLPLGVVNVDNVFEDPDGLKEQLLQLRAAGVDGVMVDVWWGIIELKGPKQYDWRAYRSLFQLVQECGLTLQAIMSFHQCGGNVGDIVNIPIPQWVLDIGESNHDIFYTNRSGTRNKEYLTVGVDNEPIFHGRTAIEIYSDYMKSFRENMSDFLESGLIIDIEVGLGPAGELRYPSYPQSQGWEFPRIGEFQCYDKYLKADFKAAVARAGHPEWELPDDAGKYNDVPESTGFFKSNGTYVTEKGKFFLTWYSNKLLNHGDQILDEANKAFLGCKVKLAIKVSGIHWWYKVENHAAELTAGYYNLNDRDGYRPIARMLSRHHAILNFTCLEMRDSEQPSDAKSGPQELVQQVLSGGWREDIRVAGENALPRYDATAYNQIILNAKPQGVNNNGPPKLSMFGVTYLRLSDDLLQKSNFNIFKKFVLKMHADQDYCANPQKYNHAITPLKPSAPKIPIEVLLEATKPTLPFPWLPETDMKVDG
Method: For control, a sample added with no moranoline was used.
The activity of β-amylase was determined by the 3,5-dinitrosalicylic acid method of Example 37.

T1 sequence (P07683 26-604): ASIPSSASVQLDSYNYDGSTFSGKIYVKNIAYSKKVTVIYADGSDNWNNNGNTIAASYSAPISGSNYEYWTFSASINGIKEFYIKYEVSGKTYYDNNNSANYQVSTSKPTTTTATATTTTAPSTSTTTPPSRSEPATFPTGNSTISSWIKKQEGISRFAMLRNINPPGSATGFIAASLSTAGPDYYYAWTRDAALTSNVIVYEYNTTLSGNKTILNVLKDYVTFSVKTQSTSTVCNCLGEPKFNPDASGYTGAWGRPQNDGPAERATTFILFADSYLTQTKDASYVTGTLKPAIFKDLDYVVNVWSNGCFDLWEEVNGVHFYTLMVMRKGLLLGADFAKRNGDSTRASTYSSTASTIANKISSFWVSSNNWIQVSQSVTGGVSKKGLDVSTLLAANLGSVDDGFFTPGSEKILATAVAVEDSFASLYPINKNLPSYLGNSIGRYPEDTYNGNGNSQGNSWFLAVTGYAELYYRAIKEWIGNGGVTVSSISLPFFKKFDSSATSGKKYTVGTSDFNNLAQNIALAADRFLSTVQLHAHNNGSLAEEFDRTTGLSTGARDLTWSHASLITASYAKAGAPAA

OC[C@H]1NC[C@H](O)[C@@H](O)[C@@H]1O [moranoline]
inhibition of the enzyme activity of glucoamylase (glucoamylase): inhibit the enzyme activity of glucoamylase
stabilizing effect (residual activity, FIG. 4) (β-glucosidase): stabilizing effect
stabilizing action (residual activity, FIG. 6) (β-amylase): stabilizing action
